This is an account of results in patent US20250295608A1, “PHARMACEUTICAL COMPOSITIONS AND METHODS FOR TREATING OSTEOARTHRITIS” (INSIGNIA PHARMACEUTICALS, LLC, priority 2024, published 2025).

Entries after “also recorded” stand apart in the source; their conditions may differ.

In one assay the test system is SOX9. Nature of the assay: SOX9 relative expression in osteoarthritic chondrocytes (qRT-PCR, normalized to GAPDH). Format: cell-based, human. (Quantitative PCR measures a nucleic acid by following its amplification.)
Assay [1] has as its system IL-1β-induced PGE2 release. As to the kind of experiment: IL-1β-induced PGE2 release from normal human chondrocytes (competitive EIA). The format is cell-based. As to conditions: for inhibition at 10 µM: Homo sapiens, Chondrocyte; for inhibition at 10 µM / inhibition of PGE2 release: 25 uM Dec, singlet.
Another assay relates to MMP13. As to the kind of experiment: MMP13 relative expression in osteoarthritic chondrocytes (qRT-PCR). Format: cell-based, human. As to conditions: for Observed Relative expression of MMP13: 0.1% HA, 0.1 uM Dex.
The test system of a further assay is SOX9 versus RUNX2. Nature of the assay: Relative expression of SOX9 versus RUNX2 in osteoarthritic chondrocytes. The format is cell-based, human. The conditions noted are these: passage 5 human osteoarthritic chondrocytes, 27 days.
A further assay concerns IL-1β release. Nature of the assay: Two-hit (LPS then ATP) inflammasome activation, IL-1β release from THP1 macrophages. Format: cell-based, human. As to conditions: with 25 nanomolar Dex.
The test system of the next assay is PGE2. Nature of the assay: IL-1β-induced PGE2 in osteoarthritic human synoviocytes. The format is cell-based. As to conditions: for PGE2 release: 200 nanomolar DA or 500 ng/mL IL-1RA, pretreatment 5 min, 1 h or 2 h, IL-1β 1 ng/mL for 10 minutes or 1 hour. As to the method: FIG. 31A depicts early concentrations of PGE2 present in primary […] of varying concentrations of Dex and DA in view of controls. The concentrations in FIG. 31A were measured at hour three.
FIG. 31B is a bar graph depicting PGE2 release from human osteoarthritic synoviocytes treated with media, 200 nanomolar DA, or 500 nanograms/milliliter of IL-1 Receptor Antagonist (IL-1RA) for the specified pretreatment times at the bottom of each panel (5 minutes, 1 hour, or 2 hours, and then stimulated with 1 nanogram/milliliter IL-1β for either 10 minutes or 1 hour, as indicated. PGE2 in picograms/milliliter was released at detectable levels in each of the media treated samples, including the short 10-minute IL-1β stimulation conditions, implicating low level activation caused by a change of media. The media controls within each panel of treatments released increased PGE2 compared to DA treated cells. Cells were also treated with IL-IRA which inhibits IL-1β by binding […], effectively blocking IL-1β signaling. […] DA is able to incorporate into the cell membrane_and the immediate inhibition of signaling may reflect the ability of DA to change the biophysical properties of the cell membrane.
FIG. 33 illustrates two bar graphs that depict the concentrations of PGE2 inside of the cell versus PGE2 that was secreted into the cell culture media. Specifically, the bar graph labeled “Intracellular” illustrates the concentrations of PGE2 inside of the cell and the bar graph labeled “Supernatent” illustrates the concentration of PGE2 that was secreted into the cell culture media. Synoviocytes were stimulated with IL-1β for 6 hours and then cell culture media harvested separately along with collecting cell lysates. […] Specifically, treating osteoarthritic HSF cells with 1 ng/ml IL-1β final concentration causes the cells to secrete large amounts of PGE2 into the cell culture media. […] To test this, the PGE2 concentrations inside of the cells and in the cell culture media were measured to compare them directly to each other. […] Thus, without being bound by theory, it is believed that DA binds to or interacts with MRP4 proteins and prevents MRP4 from successfully transporting PGE2.

The test system of the next assay is arachidonic acid (AA). As to the kind of experiment: Arachidonic acid in IL-1β-stimulated osteoarthritic synoviocytes. Format: cell-based, human. The conditions noted are these: IL-1β 1 ng/mL, 3 hours; cell lysates. As to the method: Early concentrations of arachidonic acid (AA) present in primary human synoviocytes from patients with osteoarthritis that were stimulated with 1 ng/mL final concentration interleukin 1-beta (B) for 3 hours in the presence of varying concentrations of Dex and DA in view of controls are depicted in FIG. 32. The concentrations of AA in FIG. 32 were normalized to total protein content from the cell lysates using bicinchoninic acid (BCA).

The next assay relates to prostaglandin D2 (PGD2). Nature of the assay: IL-1β-induced PGD2 release in osteoarthritic human synoviocytes. The format is cell-based. As to conditions: IL-1β 0.5 ng/mL.
For assay [2], the system named is interleukin-18, tumor necrosis factor, interleukin-8, and interleukin-6. Nature of the assay: Other cytokines in two-hit stimulated THP1 macrophages. Format: cell-based, human. The conditions noted are these: dose dependent; data not shown.
Another assay has as its system prostaglandin I2 (PGI2). Nature of the assay: PGI2 in IL-1β-stimulated osteoarthritic synoviocytes. The format is cell-based, human. The conditions noted are these: IL-1β 1 ng/ml, 24 hours. As to the method:
FIG. 25 is a bar graph that depicts the concentration of prostaglandin I2 (PGI2) present in primary human synoviocytes from patients with osteoarthritis that were stimulated with 1 ng/ml final concentration of IL-1β for 24 hours in the presence of varying concentrations of DA and Dex in view of controls. PGI2 concentration response mirrored PGE2 concentrations after DA treatment. […] It is noted that prostaglandin H2 (PGH2) was also tested and was not detected in either cell culture media or from cell lysates. Without being bound by theory, it is believed that PGH2 is an intermediate and is (near) immediately converted into downstream prostaglandins and therefore levels of PGH2 are not detectable.

The target in another assay is T1, Cyclooxygenase-2 (COX-2) (Homo sapiens, UniProt P35354).
T1 sequence (P35354 18-604): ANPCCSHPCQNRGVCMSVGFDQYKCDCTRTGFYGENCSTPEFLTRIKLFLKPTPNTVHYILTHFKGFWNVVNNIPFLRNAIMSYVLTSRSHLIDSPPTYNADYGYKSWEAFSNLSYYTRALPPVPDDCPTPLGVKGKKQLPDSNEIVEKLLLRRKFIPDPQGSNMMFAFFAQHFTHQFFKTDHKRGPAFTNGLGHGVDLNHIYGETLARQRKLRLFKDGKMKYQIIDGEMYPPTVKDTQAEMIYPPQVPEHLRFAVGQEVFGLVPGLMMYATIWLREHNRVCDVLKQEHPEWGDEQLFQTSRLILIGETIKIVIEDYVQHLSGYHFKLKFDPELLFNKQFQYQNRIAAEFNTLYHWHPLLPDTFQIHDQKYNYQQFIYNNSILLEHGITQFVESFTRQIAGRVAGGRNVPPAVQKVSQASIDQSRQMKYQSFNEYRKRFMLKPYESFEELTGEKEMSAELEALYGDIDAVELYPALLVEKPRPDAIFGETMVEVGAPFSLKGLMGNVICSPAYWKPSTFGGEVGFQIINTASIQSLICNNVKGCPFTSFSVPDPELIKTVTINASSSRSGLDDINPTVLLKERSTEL
As to the kind of experiment: COX-2 inhibitor screen. The format is biochemical. The conditions noted are these: any of the concentrations tested.

Setting [3] is: high passage, dedifferentiated osteoarthritic chondrocytes, TGF-β3, 14 days.
Setting [4] is: pre-incubation 24 hours, 24-hour harvest, 28 mM Lac, 10 uM LA.
Setting [5] is: low passage osteoarthritic chondrocytes, 7, 14, 28 days.

Description for Cyclooxygenase-2 (COX-2): Celecoxib (Celebrex) was used as a positive control for COX-2.
Description for IL-1β release: A two-hit model of inflammasome activation in THP1 macrophages was developed that entails an overnight stimulation with LPS followed by a second proinflammatory stimulus, extracellular ATP, which drives inflammasome assembly and subsequent IL-1β release from the cells into the media.
In three independent experiments, THP1 macrophages stimulated by the two-hit model of inflammasome activation released IL-1β in control conditions.

Turning to `O=C(O)CCCCC1CCSS1` (stereo not drawn) [LA, α-lipoic acid], the SOX9 expression result with SOX9 (setting [3]) was “increased SOX9 transcription; also recorded: increases SOX9 relative expression”. For the same molecule, the inhibition (as a rule, the change of the read-out against control, counted positive when it falls) at 10 µM in assay [1] (96 h, rescue, 96-hour harvest, 28 mM Lac, 10 uM LA) is 33%; in [1] (setting [4]), -59%.

For `C[C@@H]1C[C@H]2[C@@H]3CCC4=CC(=O)C=C[C@]4(C)[C@@]3(F)[C@@H](O)C[C@]2(C)[C@@]1(O)C(=O)COP(=O)(O)O` [Dxp, dexamethasone phosphate, reference compound], the SOX9 expression entry is “decreased expression of SOX9” with SOX9 (setting [3]) and “temporal decrease in expression of SOX9” in the assay with SOX9 (setting [5]). Further, the MMP13 transcription entry with MMP13 (setting [5]) was “reduce MMP13 transcription”.

On to `C[C@@H]1C[C@H]2[C@@H]3CCC4=CC(=O)C=C[C@]4(C)[C@@]3(F)[C@@H](O)C[C@]2(C)[C@@]1(O)C(=O)CO` [Dex, dexamethasone, reference compound], for which the “concentration with statistical significance, PGE2 release” value in assay [1] (IL-1β, 48 h) worked out at 100 picomolar.

Regarding hyaluronic acid [HA], the “Observed Relative expression of MMP13” value is given as −1.6 fold with MMP13 (14-day micromass pellet culture) and 1.0 fold in the assay on MMP13 (28-day monolayer culture).

For `CCCCCCCCCC(=O)[O-].[Na+]` [decanoate, sodium decanoate], the “expression of SOX9 compared to RUNX2” value in the assay on SOX9 versus RUNX2 is 1.80+0.47. The “increase in potency of sodium decanoate” value with IL-1β release was found to be 4.6 ×. The “inhibition of PGE2 release” value is given as 53% in assay [1] (added at the same time as IL-1β, 24-hour harvest); 76% in [1] (added at the same time as IL-1β, 96-hour harvest); 41% in [1] (setting [4]); 75% in assay [1] (pre-incubation, 96-hour harvest); 72% in assay [1] (rescue (added after overnight IL-1β activation), 24-hour harvest, 28 mM Lac, 10 uM LA); 57% in [1] (rescue, 96-hour harvest, 28 mM Lac, 10 uM LA).

For “IL-1RA: IL-1 Receptor Antagonist, blocks IL-1β signaling [reference compound]”, the PGE2 release result in the assay on PGE2 was “consistently higher than PGE2 levels in DA treated cells”.

Turning to `CCCCCCCCCC(=O)O` [DA/Dec], in the assay with SOX9 (setting [3]), the SOX9 expression entry is given as “increased expression of SOX9”.

For `CCCCCCCCCC(=O)O` [DA, decanoic acid], the SOX9 expression result with SOX9 (setting [3]) is listed as “increased SOX9 transcription”. Also, in the assay with arachidonic acid (AA), the “concentration of AA normalized to total protein” value was “lower concentrations of AA than the Dex samples; also recorded: lower than that of the control with IL-1β”. For the same molecule, the “concentrations inhibiting PGD2 release” value in the assay on prostaglandin D2 (PGD2) is reported as “above 1 micromolar”. For the same molecule, the PGE2 release result in the assay with PGE2 is “blocked the low-level activation seen in media controls”. Also, the “concentrations inhibiting PGE2 release” value in the assay with PGE2 (IL-1β 0.5 ng/mL) is on record as “above 1 micromolar”. Moreover, in the assay with PGE2 (IL-1β 1 ng/ml, 6 hours, cell lysates), the “PGE2 inside of the cell” value is “causes PGE2 to build up intracellularly”. For the same molecule, the “PGE2 secreted into the cell culture media” value in the assay with PGE2 (IL-1β 1 ng/ml, 6 hours, supernatant) is “causes PGE2 secretion to be abrogated”. The “increase in potency of DA” value with PGE2 (by 100 picomolar Dex) stood at 2.2 ×. In assay [2], the “expression of interleukin-18, tumor necrosis factor, interleukin-8, and interleukin-6” value is “reduced the expression”. Further, the “secreted PGI2 levels” value in the assay on prostaglandin I2 (PGI2) is on record as “decreases secreted PGI2 levels”. On Cyclooxygenase-2 (COX-2), the “inhibition of COX-2 activity” value is recorded as “no observed inhibition”.
